Where two headings read alike, the source gives them in different places.
Key:
[1] = target: T1, Type II 5α-Reductase from Human Prostate (Homo sapiens, UniProt P31213); assay: Human Type II 5α-reductase assay (conversion of [3H]-testosterone to 5α-reduced metabolites); assay type: biochemical; settings: for percent inhibition of Type II AR: 0.3 μM
T1 construct: The same procedure as above was used for preparations using tissue from prostate surgery; from tissue; host or cells: human prostate tissue from surgery, homogenate, 100,000×g pellet
T1 sequence (P31213 1-254): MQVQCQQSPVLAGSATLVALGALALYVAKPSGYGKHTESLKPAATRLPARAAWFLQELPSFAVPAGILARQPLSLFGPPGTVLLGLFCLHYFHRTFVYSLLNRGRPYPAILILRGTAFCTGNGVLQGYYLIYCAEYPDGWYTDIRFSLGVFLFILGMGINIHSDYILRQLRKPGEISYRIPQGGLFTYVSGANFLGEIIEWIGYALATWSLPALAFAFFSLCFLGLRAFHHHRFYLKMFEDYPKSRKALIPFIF

[2] = target: T2, Type I 5α-Reductase from Human Scalp (Homo sapiens, UniProt P18405); assay: Human Type I 5α-reductase assay (conversion of [3H]-testosterone to 5α-reduced metabolites); assay type: biochemical; settings: for percent inhibition of Type I AR: 0.3 μM
T2 construct: Scalp punch biopsies from graft recipient sites were obtained from human hair transplant procedures; from tissue; host or cells: human scalp punch biopsies (hair transplant graft recipient sites), homogenate, 100,000×g pellet
T2 sequence (P18405 1-259): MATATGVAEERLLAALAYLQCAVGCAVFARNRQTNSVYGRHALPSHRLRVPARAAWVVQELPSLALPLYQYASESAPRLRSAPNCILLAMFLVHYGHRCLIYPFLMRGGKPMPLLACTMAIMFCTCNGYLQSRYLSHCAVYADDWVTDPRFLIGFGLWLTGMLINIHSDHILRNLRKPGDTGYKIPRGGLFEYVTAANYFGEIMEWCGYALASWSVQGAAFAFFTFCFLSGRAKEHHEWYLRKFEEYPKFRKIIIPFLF

[3] = pH 5.5, 0.3 μM, sodium acetate pH 5.5, 25°, 30 min, compared to control reaction mixtures, read-out: percent inhibition of Type II AR
[4] = pH 7.5, 0.3 μM, 50 nM [3H]-testosterone, pH 7.5, 25°, 180 min, compared to control reaction mixtures, read-out: percent inhibition of Type I AR
[5] = 50 nM [3H]-testosterone, pH 7.5, 25°, 180 min, compared to control reaction mixtures
[6] = sodium acetate pH 5.5, 25°, 30 min, compared to control reaction mixtures

SMILES	inhibition at 0.3 µM [1, 3]	inhibition at 0.3 µM [2, 4]	percent inhibition of Type I AR [2, 5]	percent inhibition of Type II AR [1, 6]	inhibition at 0.3 µM ([1]; pH 5.5, read-out: percent inhibition of Type II AR)	inhibition at 0.3 µM ([2]; pH 7.5, read-out: percent inhibition of Type I AR)
COc1cccc(Sc2ccc3c(c2)CC[C@H]2NC(=O)CC[C@]32C)c1 [Example 15, (4aR)-(10bR)-8-(3-methoxyphenylthio)-10b-methyl-1,2,3,4,4a,5,6,10b-octahydrobenzo[f]quinolin-3-one]	39%	23%				
CN1C(=O)CC[C@]2(C)c3ccc(Sc4ncccc4[N+](=O)[O-])cc3CC[C@@H]12 [Example 167, (+)-(4aR)-(10bR)-4-methyl-8-(3-nitro-2-pyridinylthio)-10b-methyl-1,2,3,4,4a,5,6,10b-octahydrobenzo[f]quinolin-3-one]	31%	62%				
CN1C(=O)CC[C@]2(C)c3ccc(-c4cccc5cccnc45)cc3CC[C@@H]12 [Example 239, (+)-(4aR)-(10bR)-4-methyl-8-(8-quinolinyl)-10b-methyl-1,2,3,4,4a,5,6,10b-octahydrobenzo[f]quinolin-3-one]	27%	42%				
CN1C(=O)CC[C@]2(C)c3ccc(SCc4nc5ccccc5s4)cc3CC[C@@H]12 [Example 192, (+)-(4aR)-(10bR)-8-(2-benzothiazolylmethylthio)-4,10b-dimethyl-1,2,3,4,4a,5,6,10b-octahydrobenzo[f]quinoline-3-one]	33%	80%				
CN1C(=O)CC[C@]2(C)c3ccc(-c4c(F)c(F)c(Cl)c(F)c4F)cc3CC[C@@H]12 [Example 135, (+)-(4aR)-(10bR)-4-methyl-8-(4-chloro-2,3,5,6-tetrafluorophenyl)-10b-methyl-1,2,3,4,4a,5,6,10b-octahydrobenzo[f]-quinolin-3-one]	31%	92%				
CN1C(=O)CC[C@]2(C)c3ccc(Sc4nc5cc([N+](=O)[O-])ccc5s4)cc3CC[C@@H]12 [Example 160, (+)-(4aR)-(10bR)-4-methyl-8-(5-nitro-2-benzothiazolylthio)-10b-methyl-1,2,3,4,4a,5,6,10b-octahydrobenzo[f]quinolin-3-one]	38%	61%				
C[C@]12CCC(=O)N[C@@H]1CCc1cc(Sc3cnc4ccccc4c3)ccc12 [Example 18, (4aR)-(10bR)-8-(3-quinolinylthio)-10b-methyl-1,2,3,4,4a,5,6,10b-octahydrobenzo[f]quinolin-3-one]	15%	7%				
CN1C(=O)CC[C@]2(C)c3ccc(-c4ncccn4)cc3CC[C@@H]12 [Example 254, (+)-(4aR)-(10bR)-4-methyl-8-(2-pyrimidinyl)-10b-methyl-1,2,3,4,4a,5,6,10b-octahydrobenzo[f]quinolin-3-one]	28%	37%				
CN1C(=O)CC[C@]2(C)c3ccc(Sc4nc5c(Br)cccc5s4)cc3CC[C@@H]12 [Example 183, (+)-(4aR)-(10bR)-4-methyl-8-(4-bromo-2-benzothiazolylthio)-10b-methyl-1,2,3,4,4a,5,6,10b-octahydrobenzo[f]quinolin-3-one]	88%	89%		87%		
CN1C(=O)CC[C@]2(C)c3ccc(-c4cnccn4)cc3CC[C@@H]12 [Example 253, (+)-(4aR)-(10bR)-4-methyl-8-(2-pyrazinyl)-10b-methyl-1,2,3,4,4a,5,6,10b-octahydrobenzo[f]quinolin-3-one]	32%	5%				
COc1ccccc1Sc1ccc2c(c1)CC[C@H]1N(C)C(=O)CC[C@]21C [Example 104, (+)-(4aR)-(10bR)-4,10b-dimethyl-8-(2-methoxyphenylthio)-1,2,3,4,-4a,5,6,10b-octahydrobenzo[f]quinolin-3-one]	41%	89%				
CN1C(=O)CC[C@]2(C)c3ccc(Sc4ncccn4)cc3CC[C@@H]12 [Example 151, (+)-(4aR)-(10bR)-4-methyl-8-(2-pyrimidinylthio)-10b-methyl-1,2,3,4,4a,5,6,10b-octahydrobenzo[f]quinolin-3-one]	28%	31%				
CN1C(=O)CC[C@]2(C)c3ccc(CCCc4ccccc4)cc3CC[C@@H]12 [Example 275, (+)-(4aR)-(10bR)-4-methyl-8-(3-phenylpropyl)-10b-methyl-1,2,3,4,4a,5,6,10b-octahydrobenzo[f]quinolin-3-one]	44%	75%				
Cc1cccc2sc(Sc3ccc4c(c3)CC[C@H]3N(C)C(=O)CC[C@]43C)nc12 [Example 159, (+)-(4aR)-(10bR)-4-methyl-8-(4-methyl-2-benzothiazolylthio)-10b-methyl-I, 2,3,4,4a,5,6,10b-octahydrobenzo[f]quinolin-3-one]	87%		87%	83%		
CN1C(=O)CC[C@]2(C)c3ccc(Sc4ccccc4F)cc3CC[C@@H]12 [Example 108, (+)-(4aR)-(10bR)-4,10b-dimethyl-8-(2-fluorophenylthio)-1,2,3,4,-4a,5,6,10b-octahydrobenzo[f]quinolin-3-one]	29%	100%				
CN1C(=O)CC[C@]2(C)c3ccc(/C=C\c4ccccc4)cc3CC[C@@H]12 [Example 285, (4aR)-(10bR)-4,10b-dimethyl-8-(2-phenylethenyl)-1,2,3,4,4a,5,6,10b-octahydrobenzo[f]quinolin-3-one]					36%	93%

Continued, in another order:

inhibition at 0.3 µM [1, 3]	inhibition at 0.3 µM [2, 4]	percent inhibition of Type I AR [2, 5]	percent inhibition of Type II AR [1, 6]	SMILES	inhibition at 0.3 µM ([1]; pH 5.5, read-out: percent inhibition of Type II AR)	inhibition at 0.3 µM ([2]; pH 7.5, read-out: percent inhibition of Type I AR)
35%	84%			CN1C(=O)CC[C@]2(C)c3ccc(-c4ccc(Cl)s4)cc3CC[C@@H]12 [Example 218, (+)-(4aR)-(10bR)-4-methyl-8-(5-chloro-2-thienyl)-10b-methyl-1,2,3,4,4a,5,6,10b-octahydrobenzo[f]quinolin-3-one]		
31%	85%			CN1C(=O)CC[C@]2(C)c3ccc(-c4cc5ccccc5s4)cc3CC[C@@H]12 [Example 82, (+)-(4aR)-(10bR)-4-methyl-8-(2-benzothienyl)-10b-methyl-1,2,3,4,4a,5,6,10b-octahydrobenzo-[f]quinolin-3-one]		
58%	36%			CN1C(=O)CC[C@]2(C)c3ccc(-c4n[nH]c5ccccc45)cc3CC[C@@H]12 [Example 257, (+)-(4aR)-(10bR)-4-methyl-8-(3-indazolyl)-10b-methyl-1,2,3,4,4a,5,6,10b-octahydrobenzo[f]quinolin-3-one]		
32%	95%	94%		CN1C(=O)CC[C@]2(C)c3ccc(-c4ccc(Cl)cc4)cc3CC[C@@H]12 [Example 50, (+)-(4aR)-(10bR)-4-methyl-8-(4-chlorophenyl)-10b-methyl-1,2,3,4,4a,5,6,10b-octahydrobenzo[f]quinolin-3-one]		
28%	88%			CN1C(=O)CC[C@]2(C)c3ccc(-c4ccc(Cl)c(C(F)(F)F)c4)cc3CC[C@@H]12 [Example 24, (+)-(4aR)-(10bR)-4-methyl-8-(4-chloro-3-trifluoromethylphenyl)-10b-methyl-1,2,3,4,4a,5,6,10b-octahydrobenzo[f]-quinolin-3-one]		
29%	83%			CN1C(=O)CC[C@]2(C)c3ccc(-c4cc(F)cc(F)c4F)cc3CC[C@@H]12 [Example 130, (+)-(4aR)-(10bR)-4-methyl-8-(2,3,5-trifluorophenyl)-10b-methyl-1,2,3,4,4a,5,6,10b-octahydrobenzo[f]quinolin-3-one]		
51%	96%		34%	CN1C(=O)CC[C@]2(C)c3ccc(Sc4cccc(Cl)c4)cc3CC[C@@H]12 [Example 100, (+)-(4aR)-(10bR)-4,10b-dimethyl-8-(3-chlorophenylthio)-1,2,3,4,-4a,5,6,10b-octahydrobenzo[f]quinolin-3-one]		
54%	89%			CN1C(=O)CC[C@]2(C)c3ccc(-c4nc5ccccc5s4)cc3CC[C@@H]12 [Example 252, (+)-(4aR)-(10bR)-4-methyl-8-(2-benzothiazolyl)-10b-methyl-1,2,3,4,4a,5,6,10b-octahydrobenzo[f]quinolin-3-one]		
30%	91%			CN1C(=O)CC[C@]2(C)c3ccc(-c4ccc(Cl)c(F)c4)cc3CC[C@@H]12 [Example 219, (+)-(4aR)-(10bR)-4-methyl-8-(4-chloro-3-fluorophenyl)-10b-methyl-1,2,3,4,4a,5,6,10b-octahydrobenzo[f]quinolin-3-one]		

Source: patent publication US5622962A, “5α-reductase inhibitors” (priority 1995, dated 1997)
